Data published in publication PMC9132125 (Journal of natural products, 2016).

Assays:
[1] = system: T315I mutant KCL-22 CML cells; assay: MTS cell viability assay, imatinib-resistant T315I mutant KCL-22 CML cells; type: cell-based, human; settings: 48 h exposure
c-Src = c-Src (Homo sapiens, UniProt P12931); assay: Kinase assay in vitro; type: biochemical; settings: recombinant protein, 33P-ATP
GSK-3β = settings: read-out: GSK-3β IC50; previously published; cited from earlier work
[2] = system: KCL-22 and T315I KCL-22 CML cell lines; assay: Biological screening at 1 μM on the two CML cell lines; type: cell-based, human

Chain of c-Src (P12931 whole entry): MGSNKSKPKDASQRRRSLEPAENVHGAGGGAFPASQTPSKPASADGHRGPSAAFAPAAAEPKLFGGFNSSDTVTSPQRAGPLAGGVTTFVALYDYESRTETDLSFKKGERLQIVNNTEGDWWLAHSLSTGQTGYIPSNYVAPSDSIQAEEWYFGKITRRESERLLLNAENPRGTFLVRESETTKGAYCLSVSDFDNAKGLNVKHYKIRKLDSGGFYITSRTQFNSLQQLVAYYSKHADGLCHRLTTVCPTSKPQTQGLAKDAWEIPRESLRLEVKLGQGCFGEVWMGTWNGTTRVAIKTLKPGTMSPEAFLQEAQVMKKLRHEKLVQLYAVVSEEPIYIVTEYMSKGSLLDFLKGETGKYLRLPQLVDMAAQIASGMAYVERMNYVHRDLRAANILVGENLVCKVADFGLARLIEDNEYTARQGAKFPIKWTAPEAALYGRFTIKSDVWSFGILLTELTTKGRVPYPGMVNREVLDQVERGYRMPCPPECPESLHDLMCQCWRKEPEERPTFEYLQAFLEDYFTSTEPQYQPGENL

| c-Src IC50 range (in words) (c-Src) | Compound | T315I mutant KCL-22 IC50 range (in words) [1] | IC50 (GSK-3β) | cytotoxic activity in the screening (in words) [2] |
| --- | --- | --- | --- | --- |
| nanomolar | Cl.O=C1Nc2cc(Br)ccc2/C1=C1/Nc2ccccc2/C1=N\OCCN1CCCC1 [compound 20] | submicromolar range | 54 nM | – |
| picomolar | O=C1Nc2cc(Br)ccc2/C1=C1/Nc2ccccc2/C1=N\OCCN1CCN(CCOCCO)CC1 [compound 29] | – | 14 nM | – |
| nanomolar | COCCN1CCN(CCO/N=C2/C(=C3/C(=O)Nc4cc(Br)ccc43)Nc3ccccc32)CC1.Cl.Cl [compound 28] | submicromolar range | 200 nM | – |
| picomolar | Cl.Cl.O=C1Nc2cc(Br)ccc2/C1=C1/Nc2ccccc2/C1=N\OCCN1CCNCC1 [compound 22] | submicromolar range | – | – |
| nanomolar | COCCN1CCN(CCO/N=C2/C(=C3/C(=O)Nc4cc(Br)ccc43)Nc3ccccc32)CC1 [compound 27] | submicromolar range | 110 nM | – |
| nanomolar | O=C1Nc2cc(Br)ccc2/C1=C1/Nc2ccccc2/C1=N\OCCN1CCCC1 [compound 19] | submicromolar range | 26 nM | – |

More lines, now with the values behind:

| Compound | c-Src IC50 range (in words) (c-Src) | T315I mutant KCL-22 IC50 range (in words) [1] | IC50 (GSK-3β) | cytotoxic activity in the screening (in words) [2] |
| --- | --- | --- | --- | --- |
| O=C1Nc2ccccc2/C1=C1/Nc2cc(Br)ccc2C1=O [compound 57] | – | – | – | inactive |
| O=C1Nc2ccccc2/C1=C1/Nc2ccccc2C1=O [compound 1, Indirubin, reference compound] | – | – | – | loss of activity |
| Cl.Cl.O=C1Nc2cc(Br)ccc2/C1=C1/Nc2ccccc2/C1=N\OCCN1CCN(CCOCCO)CC1 [compound 30] | – | submicromolar range | – | – |
| CN(CCO/N=C1/C(=C2/C(=O)Nc3cc(Br)ccc32)Nc2ccccc21)CC(O)CO (stereo not drawn) [compound 17] | picomolar | submicromolar range | 67 nM | – |
| O=C1Nc2ccccc2/C1=C1/Nc2ccccc2/C1=N\O [compound 2] | – | – | – | loss of activity |
| O=C1Nc2ccccc2/C1=C1/Nc2cc(Br)ccc2/C1=N\O [compound 58] | – | – | – | inactive |
| CN(CCO/N=C1/C(=C2/C(=O)Nc3cc(Br)ccc32)Nc2ccccc21)CC(O)CO.Cl (stereo not drawn) [compound 18] | picomolar | submicromolar range | 23 nM | – |
